# Earlier results in PMC7765930, “Antiproliferative Phenanthrenes from Juncus tenuis: Isolation and Diversity-Oriented Semisynthetic Modification” (Molecules, 2020).
# How the values were obtained:
# [1] = test system: HCT-8 cells; design: method as in PMID 19193043; details: read-out: IC50, growth inhibition HCT-8; cited from earlier work
# [2] = test system: MCF-7 cells; design: method as in PMID 19193043; details: read-out: IC50, growth inhibition MCF-7; cited from earlier work
# [3] = test system: KB cells; design: method as in PMID 19193043; details: read-out: IC50, growth inhibition KB; cited from earlier work
# [4] = test system: PC-3 cells; design: method as in PMID 19193043; details: read-out: IC50, growth inhibition PC-3; cited from earlier work
# [5] = test system: A549 cells; design: method as in PMID 19193043; details: read-out: IC50, growth inhibition A549; cited from earlier work
# [6] = test system: vincristine resistant KBVIN cells; design: method as in PMID 19193043; details: read-out: IC50, growth inhibition KBVIN; cited from earlier work
# [7] = test system: DU145 cells; design: method as in PMID 19193043; details: read-out: IC50, growth inhibition DU145; cited from earlier work
# [8] = test system: HL-60 cell line; design: method as in PMID 22976333; details: read-out: IC50, cytotoxicity against HL-60; cited from earlier work
Structure (SMILES),IC50 [1] [nM],IC50 [2] [nM],IC50 [3] [nM],IC50 [4] [nM],IC50 [5] [nM],IC50 [6] [nM],IC50 [7] [nM],IC50 [8] [nM]
COC1=CC(=O)c2ccc3cc(OC)c(OC)c(O)c3c2C1=O [calanquinone A],640,100,1020,510,610,1430,1080,
"COC1=C(OC)C(=O)c2c(ccc3cccc(O)c23)C1=O [5-hydroxy-2,3-dimethoxy-1,4-phenanthrenequinone]",,,,,,,,4700
